Patent publication US20250101058A1, “CRYSTAL FORM OF HIGH-STABILITY NOR-URSODEOXYCHOLIC BERBERINE SALT, AND PREPARATION METHOD THEREFOR” (CHENGDU BIOBEL BIOTECHNOLOGY CO., LTD, priority 2022, published 2025)
Like-named read-outs stand apart in the source and are kept apart here.

Columns and labels:
[1] = Competition experiment for crystalline forms A, C, and D in suspension; format: physicochemical; details: aw 0.2-1; stirring at room temperature, 8 days; XRPD
Description: The starting material obtained in step 1 of Example 1 was added to the corresponding volume of solvent, and then allowed to suspend under stirring at room temperature for 2 h. The suspension was filtered with a 0.4 μm PTFE filter membrane to obtain a saturated solution. About 3 mg samples of crystalline forms A, C, and D were separately weighed and transferred to HPLC vials, to which was added 1 mL of saturated solution, and then the mixture was allowed to suspend under stirring at room temperature. After 8 days, the suspension was filtered to obtain the solid, and the change in crystalline form was identified by XRPD analysis.

[2] = format: physicochemical; details: for Purity (area): HPLC
Description: The samples of crystalline forms A and D were stored in an opened bottle for one week under 25° C./60% RH and 40° C./75% RH conditions, respectively. The physical and chemical stability of the samples was detected by XRPD and HPLC.

[3] = Pressure stability testing (tableting at 10 kN); format: physicochemical; details: 10 kN pressure; for Adhesion percentage: (ML-MT)/ML×100%; for Tensile strength T: T=2H/πDt; for Crystalline form after pressing: XRPD of crushed sample; for Tablet diameter D / Tablet thickness t: after 24 h elastic recovery; for Adhesion amount: powder adhesive to the punch; for Hardness H: radial crushing strength
Description: 100 mg samples of crystalline forms A and D were respectively added to […] of round flat punch, and then pressed into circular tablets using 10 kN pressure. The loading mass (ML) and tablet mass (MT) were recorded, and then the formula ma=(ML-MT)/ML×100% was used to calculate the mass percentage (ma) of the powder adhesive to the punch; the pressed tablets were kept in a dryer for 24 h for elastic recovery. After elastic recovery, the diameter (D) and thickness (t) of the tablet were measured using a vernier caliper. The radial crushing strength (hardness, H) was measured using a tablet hardness tester, and the XRPD pattern of the crushed sample was also tested.

[4] = Grinding stability testing (XRPD); format: physicochemical; details: 50 mg manually ground
Description: 50 mg samples of crystalline form A and crystalline form D were manually ground, and then detected by XRPD.

[5] = Stability of crystalline form G on heating and on exposure after opening the cover; format: physicochemical; details: cover opened and kept for 1 h
[6] = previous studies, CN2021110940333; cited from earlier work
[7] = Hygroscopicity test (dynamic vapor sorption, DVS); format: physicochemical
Description: The mass change percentage of crystalline form A was tested using dynamic vapor sorption (DVS) under constant temperature conditions of 25° C. and various humidity conditions, with a humidity change of 30% RH to 95% RH to 0% RH to 95% RH.
Crystalline form A had good physical stability.

[8] = One week, 25° C./60% RH and 40° C./75% RH

Row | Compound | Change of crystal structure / crystalline form (physical stability) [2] | Purity (area) ([2]; Initial) [%] | Relative purity percentage (vs initial purity) ([2]; One week, 25° C./60% RH) [%] | Purity (area) ([2]; One week, 25° C./60% RH) [%] | Relative purity percentage (vs initial purity) ([2]; One week, 40° C./75% RH) [%] | Purity (area) ([2]; One week, 40° C./75% RH) [%] | Tablet mass [3] [mg] | Adhesion percentage [3] [%] | Tensile strength T [3] [MPa] | Crystalline form after pressing [3] | Tablet diameter D [3] [mm] | Tablet thickness t [3] [mm] | Adhesion amount [3] [mg] | Hardness H [3] [N] | Crystalline form after grinding [4] | also measured
1 | CC(CC(=O)[O-])C1CCC2C3C(O)CC4CC(O)CCC4(C)C3CCC12C.COc1ccc2cc3[n+](cc2c1OC)CCc1cc2c(cc1-3)OCO2 (stereo not drawn) [Crystalline form C, nor-ursodeoxycholic berberine salt] | – | – | – | – | – | – | – | – | – | – | – | – | – | – | – | Solid form obtained after competition in suspension [1]: transition to form A
2 | CC(CC(=O)[O-])C1CCC2C3C(O)CC4CC(O)CCC4(C)C3CCC12C.COc1ccc2cc3[n+](cc2c1OC)CCc1cc2c(cc1-3)OCO2 (stereo not drawn) [Crystalline form D, nor-ursodeoxycholic berberine salt] | not obviously changed | 98.61 | 99.63 | 98.24 | 99.37 | 97.99 | 96.9 | 3.3 | 1.69 | remained unchanged | 6.02 | 2.90 | 3.3 | 46.31 | transformed into amorphous | Purity decrease ([2]; One week, 25° C./60% RH): 0.37%; Crystallinity after storage [2, 8]: the crystallinity decreased; Sample appearance after storage [2, 8]: turned dark brown; Purity decrease ([2]; One week, 40° C./75% RH): 0.62%
3 | CC(CC(=O)[O-])C1CCC2C3C(O)CC4CC(O)CCC4(C)C3CCC12C.COc1ccc2cc3[n+](cc2c1OC)CCc1cc2c(cc1-3)OCO2 (stereo not drawn) [Crystalline form G, nor-ursodeoxycholic berberine salt] | – | – | – | – | – | – | – | – | – | – | – | – | – | – | – | Crystalline form after opening the cover [5]: turned back into form A
4 | nor-ursodeoxycholic berberine salt | – | – | – | – | – | – | – | – | – | – | – | – | – | – | – | Alanine aminotransferase (ALT) [6]: significantly reduce; Alkaline phosphatase (ALP) [6]: significantly reduce; Glutamic oxaloacetic transaminase (AST) [6]: significantly reduce; Liver pathological damage (such as hepatic steatosis) [6]: significant improvement effect; Therapeutic effect on fatty liver, liver fibrosis, and cirrhosis versus HTD1801 [6]: significantly better than that of HTD1801; Therapeutic effect on fatty liver, liver fibrosis, and cirrhosis versus individual norUDCA and berberine hydrochloride [6]: superior to the sum of the effects produced by individual norUDCA and berberine hydrochloride
5 | nor-ursodeoxycholic berberine salt [Crystalline form A] | the crystal structure was not changed | 99.26 | 100.0 | 99.24 | 100.0 | 99.23 | 103.2 | 1.6 | 2.38 | remained unchanged | 6.02 | 2.90 | 1.7 | 65.37 | remained unchanged | Water adsorption rate ([7]; DVS, 25° C., 80% RH): 8.7%; Water absorption behaviour ([7]; DVS, 25° C., after the relative humidity reached 10%): slowly absorbed water; Water absorption behaviour ([7]; DVS, 25° C., relative humidity range of 0% to 10%): rapidly absorbed water; Crystalline form before and after DVS testing ([7]; XRPD after DVS): did not change; Purity change (chemical stability) [2]: not changed significantly; Crystallinity after grinding [4]: the crystallinity decreased
